Measured values: patent US8461160B2, “Dihydropyrimidinones” (Hoffmann-La Roche, Inc., priority 2009, dated 2013)
pIC50: −log10 of the molar value.

Biological target: T1, BACE2 (Homo sapiens, UniProt Q9Y5Z0)
T1 construct: BACE2 enzyme ectodomain (derived from plasmid “pET17b-T7-hu proBACE2”) was prepared as described in Ostermann et al; T7 tag (N); made in house
T1 sequence (Q9Y5Z0 21-473 limits assumed): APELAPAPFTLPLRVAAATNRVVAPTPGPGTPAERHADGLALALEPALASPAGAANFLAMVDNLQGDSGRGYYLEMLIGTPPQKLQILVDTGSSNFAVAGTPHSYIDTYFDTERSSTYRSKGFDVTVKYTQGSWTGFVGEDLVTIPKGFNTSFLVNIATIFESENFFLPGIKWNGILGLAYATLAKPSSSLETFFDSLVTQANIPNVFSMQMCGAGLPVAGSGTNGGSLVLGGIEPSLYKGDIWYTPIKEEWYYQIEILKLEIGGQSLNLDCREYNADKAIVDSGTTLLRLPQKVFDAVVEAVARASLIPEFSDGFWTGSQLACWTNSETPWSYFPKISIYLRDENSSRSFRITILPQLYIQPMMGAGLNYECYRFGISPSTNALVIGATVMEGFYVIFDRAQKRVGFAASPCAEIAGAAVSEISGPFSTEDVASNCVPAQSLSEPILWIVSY
Assay: Fluorescent-peptide cleavage assay for BACE2 inhibition
Format: biochemical
Details: BACE2 enzyme ectodomain, fluorescent peptide WS EVNLD AEFRC-MR121, assay buffer pH 4.5, room temperature
Summary of the method: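 Pro-enzyme BACE2 was activated at 80 nM for 1 h at room temperature in 100 mM Na-acetate, 20 mM EDTA, 0.05% BSA, pH 4.5, then preincubated 10 min with compound. IC50 from sigmoidal dose-response fit.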

Q: With CN1C(=O)C[C@@](C)(c2cccc(NC(=O)c3cc4cccnc4[nH]3)c2)N=C1N [Example 78, 1H-Pyrrolo[2,3-b]pyridine-2-carboxylic acid [3-((S)-2-amino-1,4-dimethyl-6-oxo-1,4,5,6-tetrahydro-pyrimidin-4-yl)-phenyl]-amide] as the molecule, how does the pIC50 read?
A: 6.10

Q: Cc1cc(C(=O)Nc2cccc([C@]3(C)CC(=O)N(C)C(N)=N3)c2)n(C2CC2)n1 [Example 79, 2-Cyclopropyl-5-methyl-2H-pyrazole-3-carboxylic acid [3-((S)-2-amino-1,4-dimethyl-6-oxo-1,4,5,6-tetrahydro-pyrimidin-4-yl)-phenyl]-amide] was tested. Which pIC50 did it give?
A: 6.72

Q: CN1C(=O)C[C@@](C)(c2cccc(NC(=O)c3ccccc3-c3ncc[nH]3)c2)N=C1N [Example 80, N-[3-((S)-2-Amino-1,4-dimethyl-6-oxo-1,4,5,6-tetrahydro-pyrimidin-4-yl)-phenyl]-2-(1H-imidazol-2-yl)-benzamide] was tested. Which pIC50 did it give?
A: 5.68

Q: CN1C(=O)C[C@@](C)(c2cccc(NC(=O)c3ccon3)c2)N=C1N [Example 81, Isoxazole-3-carboxylic acid [3-((S)-2-amino-1,4-dimethyl-6-oxo-1,4,5,6-tetrahydro-pyrimidin-4-yl)-phenyl]-amide] was tested. Which pIC50 did it give?
A: 6.77

Q: With Cc1cc(C(=O)Nc2cccc([C@]3(C)CC(=O)N(C)C(N)=N3)c2)no1 [Example 82, 5-Methyl-isoxazole-3-carboxylic acid [3-((S)-2-amino-1,4-dimethyl-6-oxo-1,4,5,6-tetrahydro-pyrimidin-4-yl)-phenyl]-amide] as the molecule, how does the pIC50 read?
A: 6.23

Q: How did the pIC50 turn out when CCc1ccc(C(=O)Nc2cccc([C@]3(C)CC(=O)N(C)C(N)=N3)c2)nc1 [Example 83, 5-Ethyl-pyridine-2-carboxylic acid [3-((S)-2-amino-1,4-dimethyl-6-oxo-1,4,5,6-tetrahydro-pyrimidin-4-yl)-phenyl]-amide] was run?
A: 7.40

Q: How did the pIC50 turn out when Cc1cnc(C(=O)Nc2cccc([C@]3(C)CC(=O)N(C)C(N)=N3)c2)[nH]1 [Example 84, 4-Methyl-1H-imidazole-2-carboxylic acid [3-((S)-2-amino-1,4-dimethyl-6-oxo-1,4,5,6-tetrahydro-pyrimidin-4-yl)-phenyl]-amide] was run?
A: 6.41

Q: How did the pIC50 turn out when CC[C@@]1(c2cccc(NC(=O)c3ccc(F)cn3)c2)CC(=O)N(C)C(N)=N1 [Example 85, 5-Fluoro-pyridine-2-carboxylic acid [3-((S)-2-amino-4-ethyl-1-methyl-6-oxo-1,4,5,6-tetrahydro-pyrimidin-4-yl)-phenyl]-amide] was run?
A: 6.52

Q: CC[C@@]1(c2cccc(NC(=O)c3ccc(C(F)(F)F)cn3)c2)CC(=O)N(C)C(N)=N1 [Example 86, 5-Trifluoromethyl-pyridine-2-carboxylic acid [3-((S)-2-amino-4-ethyl-1-methyl-6-oxo-1,4,5,6-tetrahydro-pyrimidin-4-yl)-phenyl]amide] was tested. Which pIC50 did it give?
A: 6.60

Q: How did the pIC50 turn out when CCC[C@@]1(c2cccc(NC(=O)c3ccc(Cl)cn3)c2)CC(=O)N(C)C(N)=N1 [Example 87, 5-Chloro-pyridine-2-carboxylic acid [3-((S)-2-amino-1-methyl-6-oxo-4-propyl-1,4,5,6-tetrahydro-pyrimidin-4-yl)-phenyl]-amide] was run?
A: 6.77

Q: CCC[C@@]1(c2cccc(NC(=O)c3ccccn3)c2)CC(=O)N(C)C(N)=N1 [Example 88, Pyridine-2-carboxylic acid [3-((S)-2-amino-1-methyl-6-oxo-4-propyl-1,4,5,6-tetrahydro-pyrimidin-4-yl)-phenyl]-amide] was tested. Which pIC50 did it give?
A: 5.75

Q: CCC[C@@]1(c2cccc(NC(=O)c3ccn(C)n3)c2)CC(=O)N(C)C(N)=N1 [Example 89, 1-Methyl-1H-pyrazole-3-carboxylic acid [3-((S)-2-amino-1-methyl-6-oxo-4-propyl-1,4,5,6-tetrahydro-pyrimidin-4-yl)-phenyl]-amide] was tested. Which pIC50 did it give?
A: 5.32

Q: With CCC[C@@]1(c2cccc(NC(=O)c3coc(C)n3)c2)CC(=O)N(C)C(N)=N1 [Example 90, 2-Methyl-oxazole-4-carboxylic acid [3-((S)-2-amino-1-methyl-6-oxo-4-propyl-1,4,5,6-tetrahydro-pyrimidin-4-yl)-phenyl]-amide] as the molecule, how does the pIC50 read?
A: 5.95
